Molecular target: human σ1 receptor (Homo sapiens, UniProt Q99720)
Test: biochemical
Type: binding
Parameters: μ and σ1 dual binding: key to the marks not given beside the values
Details: one combined class from Ki at human σ1 receptor (A1) and Ki at human μ-opioid receptor (A2)
Procedure: Human σ1 Receptor Radioligand Assay
The assay was carried out with 7 μg of membrane suspension, 5 nM of [^3H](+)-pentazocine in either absence or presence of either buffer or 10 μM Haloperidol for total and non-specific binding, respectively. Binding buffer contained Tris-HCl 50 mM at pH 8. Plates were incubated at 37° C. for 120 minutes. After the incubation period, the reaction mix was then transferred to MultiScreen HTS, FC plates (Millipore), filtered and plates were washed 3 times with ice-cold 10 mM Tris-HCL (pH7.4). Filters were dried and counted at approximately 40% efficiency in a MicroBeta scintillation counter (Perkin-Elmer) using EcoScint liquid scintillation cocktail

Sequence of human σ1 receptor (Q99720 whole entry): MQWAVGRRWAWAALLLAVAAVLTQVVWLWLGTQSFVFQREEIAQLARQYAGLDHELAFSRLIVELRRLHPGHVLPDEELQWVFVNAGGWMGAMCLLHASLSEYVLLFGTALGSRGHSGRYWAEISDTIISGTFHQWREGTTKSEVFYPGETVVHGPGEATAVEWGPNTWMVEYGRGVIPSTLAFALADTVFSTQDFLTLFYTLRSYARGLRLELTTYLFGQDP

Compound	μ and σ1 dual binding	Ki (read-out: μ and σ1 dual binding) [nM]
CCN1CC2(CCN(CCc3cccc(C#N)c3)CC2)OC2(CC2)C1=O.Cl [Example 27, 3-(2-{12-ethyl-13-oxo-4-oxa-8,12-diazadispiro[2.1.5.3]tridecan-8-yl}ethyl)benzonitrile hydrochloride]	++	
C[C@H]1OC2(CCN(CCc3cccc(F)c3F)CC2)CN(C2CC2)C1=O [Example 91, (R)-4-cyclopropyl-9-(2,3-difluorophenethyl)-2-methyl-1-oxa-4,9-diazaspiro[5.5]undecan-3-one]	++	
CCN1CC2(CCN(CCc3cccc(F)c3F)CC2)OC(C)(C)C1=O [Example 89, 9-(2,3-difluorophenethyl)-4-ethyl-2,2-dimethyl-1-oxa-4,9-diazaspiro[5.5]undecan-3-one]	++	
CCN1CC2(CCN(CCc3ccncc3)CC2)OC2(CC2)C1=O [Example 23, 12-ethyl-8-[2-(pyridin-4-yl)ethyl]-4-oxa-8,12-diazadispiro[2.1.5.3]tridecan-13-one]	++	
CCN1CC2(CCN(CCc3cccc(NC(C)=O)c3)CC2)OC2(CC2)C1=O [Example 57, N-[3-(2-{12-ethyl-13-oxo-4-oxa-8,12-diazadispiro[2.1.5.3]tridecan-8-yl}ethyl)phenyl]acetamide]	++	
CN1CC2(CCN(CCc3ccccc3)CC2)O[C@H](Cc2ccccc2)C1=O [Example 95, (R)-2-benzyl-4-methyl-9-phenethyl-1-oxa-4,9-diazaspiro[5.5]undecan-3-one]	++	
C[C@H]1OC2(CCN(CCc3cccc(F)c3F)CC2)CN(C)C1=O [Example 74, (R)-9-(2,3-difluorophenethyl)-2,4-dimethyl-1-oxa-4,9-diazaspiro[5.5]undecan-3-one]	++	
CCN1CC2(CCN(CCc3ccccc3O)CC2)OC2(CC2)C1=O [Example 60, 12-ethyl-8-(2-hydroxyphenethyl)-4-oxa-8,12-diazadispiro[2.1.5.3]tridecan-13-one]	++	
CCN1CC2(CCN(CCc3ccc(C(=O)NC)cc3)CC2)OC2(CC2)C1=O.Cl [Example 59, 4-(2-{12-ethyl-13-oxo-4-oxa-8,12-diazadispiro[2.1.5.3]tridecan-8-yl}ethyl)-N-methylbenzamide hydrochloride]	++	
CCN1CC2(CCN(CCc3cccc(N)n3)CC2)OC2(CC2)C1=O [Example 6, 8-[2-(6-aminopyridin-2-yl)ethyl]-12-ethyl-4-oxa-8,12-diazadispiro[2.1.5.3]tridecan-13-one]	++	
CCN1CC2(CCN(CCc3ccc(O)cc3)CC2)OC2(CC2)C1=O.Cl [Example 62, 12-ethyl-8-(4-hydroxyphenethyl)-4-oxa-8,12-diazadispiro[2.1.5.3]tridecan-13-one hydrochloride]	++	
CN1CC2(CCN(CCc3ccccc3)CC2)O[C@H](CCO)C1=O [Example 94, (R)-2-(2-hydroxyethyl)-4-methyl-9-phenethyl-1-oxa-4,9-diazaspiro[5.5]undecan-3-one]	++	
CN1CC2(CCN(CCc3ccccc3)CC2)OC(C)(C)C1=O.Cl [Example 54, 2,2,4-trimethyl-9-phenethyl-1-oxa-4,9-diazaspiro[5.5]undecan-3-one hydrochloride]	++	
CN1CC2(CCN(CCc3ccccc3F)CC2)OC2(CC2)C1=O.Cl [Example 29, 8-[2-fluorophenethyl]-12-methyl-4-oxa-8,12-diazadispiro[2.1.5.3]tridecan-13-one hydrochloride]	++	
CCN1CC2(CCN(CCc3cccc(N)c3)CC2)OC2(CC2)C1=O [Example 56, 8-(3-aminophenethyl)-12-ethyl-4-oxa-8,12-diazadispiro[2.1.5.3]tridecan-13-one]		> 500
C[C@H]1OC2(CCN(CCc3cc(F)ccc3F)CC2)CN(C)C1=O [Example 81, (R)-9-(2,5-difluorophenethyl)-2,4-dimethyl-1-oxa-4,9-diazaspiro[5.5]undecan-3-one]	++	
CCN1CC2(CCN(CCc3cc(C(F)(F)F)ccn3)CC2)OC2(CC2)C1=O.Cl [Example 4, 12-ethyl-8-{2-[4-(trifluoromethyl)pyridin-2-yl]ethyl}-4-oxa-8,12-diazadispiro[2.1.5.3]tridecan-13-one hydrochloride]	++	
CCN1CC2(CCN(CCc3ncccc3F)CC2)OC2(CC2)C1=O.Cl [Example 3, 12-ethyl-8-[2-(3-fluoropyridin-2-yl)ethyl]-4-oxa-8,12-diazadispiro[2.1.5.3]tridecan-13-one hydrochloride]	++	
C[C@H]1OC2(CCN(CCc3ccccc3OC(F)(F)F)CC2)CN(C)C1=O.Cl [Example 45, (R)-2,4-dimethyl-9-(2-(trifluoromethoxy)phenethyl)-1-oxa-4,9-diazaspiro[5.5]undecan-3-one hydrochloride]	++	
C[C@H]1OC2(CCN(CCc3ccccc3C(F)(F)F)CC2)CN(C)C1=O.Cl [Example 48, (R)-2,4-dimethyl-9-(2-(trifluoromethyl)phenethyl)-1-oxa-4,9-diazaspiro[5.5]undecan-3-one hydrochloride]	++	
CC1(C)OC2(CCN(CCc3cccc(F)c3F)CC2)CN(C2CC2)C1=O [Example 85, 4-cyclopropyl-9-(2,3-difluorophenethyl)-2,2-dimethyl-1-oxa-4,9-diazaspiro[5.5]undecan-3-one]	++	
CCN1CC2(CCN(CCc3ncccc3Cl)CC2)OC2(CC2)C1=O.Cl [Example 5, 8-[2-(3-chloropyridin-2-yl)ethyl]-12-ethyl-4-oxa-8,12-diazadispiro[2.1.5.3]tridecan-13-one hydrochloride]	++	
CCN1CC2(CCN(CCc3cccc(NC(N)=O)c3)CC2)OC2(CC2)C1=O [Example 58, [3-(2-{12-ethyl-13-oxo-4-oxa-8,12-diazadispiro[2.1.5.3]tridecan-8-yl}ethyl)phenyl]urea]	++	
CCN1CC2(CCN(CCc3cccc(F)c3F)CC2)O[C@H](C)C1=O [Example 87, (R)-9-(2,3-difluorophenethyl)-4-ethyl-2-methyl-1-oxa-4,9-diazaspiro[5.5]undecan-3-one]	++	
CC(C)N1CC2(CCN(CCc3c(F)cccc3F)CC2)O[C@H](C)C1=O.Cl [Example 49, (R)-9-(2,6-difluorophenethyl)-4-isopropyl-2-methyl-1-oxa-4,9-diazaspiro[5.5]undecan-3-one hydrochloride]	++	
